Species on record: Rattus norvegicus
Test: DrugMatrix - Regimen: Daily Repeat
Format: toxicity, organism-based, Sprague-Dawley
Design: regimen Daily Repeat, gender Male, age 6-8 weeks
Details: in vivo, sc, route subcutaneous, […]; for ABSOLUTE BASOPHIL / ABSOLUTE EOSINOPHIL / ABSOLUTE LYMPHOCYTE / ABSOLUTE MONOCYTE / ABSOLUTE SEGMENTED NEUTROPHIL / BASOPHIL / EOSINOPHIL / ERYTHROCYTE COUNT / HEMATOCRIT / HEMOGLOBIN / LEUKOCYTE COUNT / LYMPHOCYTE / MEAN CORPUSCULAR HEMOGLOBIN / MEAN CORPUSCULAR HEMOGLOBIN CONCENTRATION / MEAN CORPUSCULAR VOLUME / MONOCYTE / NEUTROPHIL / NUCLEATED RED BLOOD CELLS / PLATELET COUNT: tissue Blood; for ALANINE AMINOTRANSFERASE / ALBUMIN / ALKALINE PHOSPHATASE / ASPARTATE AMINOTRANSFERASE / BLOOD UREA NITROGEN / CARBON DIOXIDE / CHLORIDE / CHOLESTEROL / CREATINE PHOSPHOKINASE / CREATININE / GLUCOSE / LACTATE DEHYDROGENASE / LIPASE / PHOSPHORUS / POTASSIUM / SODIUM / TOTAL BILIRUBIN / TOTAL PROTEIN / URIC ACID: tissue Plasma
[1] = 18 mg/kg, 120 h, dose level High, time 5 day
[2] = 72 h, dose 1.8 mg/Kg, dose level Low, time 3 day
[3] = 120 h, dose 1.8 mg/Kg, dose level Low, time 5 day

CN(C)c1ccc(C(=C2C=CC(=[N+](C)C)C=C2)c2ccc(N(C)C)cc2)cc1.[Cl-] [GENTIAN VIOLET]
ABSOLUTE BASOPHIL [1]: 0 CELLS/uL | ABSOLUTE EOSINOPHIL [1]: 0 CELLS/uL | ABSOLUTE LYMPHOCYTE [1]: 15601 CELLS/uL | ABSOLUTE MONOCYTE [1]: 1849 CELLS/uL | ABSOLUTE SEGMENTED NEUTROPHIL [1]: 7750 CELLS/uL | BASOPHIL [1]: 0% | EOSINOPHIL [1]: 0% | ERYTHROCYTE COUNT [1]: 5.48 x10E6/uL | HEMATOCRIT [1]: 32.93% | HEMOGLOBIN [1]: 12.37 G/DL | LEUKOCYTE COUNT [1]: 25.2 x10E3/uL | LYMPHOCYTE [1]: 61.67% | MEAN CORPUSCULAR HEMOGLOBIN [1]: 22.57 pg | MEAN CORPUSCULAR HEMOGLOBIN CONCENTRATION [1]: 37.57 G/DL | MEAN CORPUSCULAR VOLUME [1]: 60.17 fL | MONOCYTE [1]: 7.33% | NEUTROPHIL [1]: 31% | NUCLEATED RED BLOOD CELLS [1]: 0 /100WBC | PLATELET COUNT [1]: 1331.67 x10E3/uL | ALANINE AMINOTRANSFERASE [1]: 49 u/L | ALBUMIN [1]: 3.03 G/DL | ALKALINE PHOSPHATASE [1]: 294.67 u/L | ASPARTATE AMINOTRANSFERASE [1]: 116 u/L | BLOOD UREA NITROGEN [1]: 16.33 mg/dL | CARBON DIOXIDE [1]: 30.67 mmol/L | CHLORIDE [1]: 100 MEQ/L | CHOLESTEROL [1]: 62.33 mg/dL | CREATINE PHOSPHOKINASE [1]: 196.33 u/L | CREATININE [1]: 0.16 mg/dL | GLUCOSE [1]: 141.33 mg/dL | LACTATE DEHYDROGENASE [1]: 146.33 u/L | LIPASE [1]: 8 u/L | PHOSPHORUS [1]: 11.3 mg/dL | POTASSIUM [1]: 6.88 MEQ/L | SODIUM [1]: 143.85 MEQ/L | TOTAL BILIRUBIN [1]: 0.13 mg/dL | TOTAL PROTEIN [1]: 5.57 G/DL | URIC ACID [1]: 1.37 mg/dL | ABSOLUTE BASOPHIL [2]: 0 CELLS/uL | ABSOLUTE EOSINOPHIL [2]: 115.33 CELLS/uL | ABSOLUTE LYMPHOCYTE [2]: 15675.67 CELLS/uL | ABSOLUTE MONOCYTE [2]: 309.33 CELLS/uL | ABSOLUTE SEGMENTED NEUTROPHIL [2]: 2499.67 CELLS/uL | BASOPHIL [2]: 0% | EOSINOPHIL [2]: 0.67% | ERYTHROCYTE COUNT [2]: 5.43 x10E6/uL | HEMATOCRIT [2]: 34.87% | HEMOGLOBIN [2]: 12.97 G/DL | LEUKOCYTE COUNT [2]: 18.6 x10E3/uL | LYMPHOCYTE [2]: 84.33% | MEAN CORPUSCULAR HEMOGLOBIN [2]: 23.9 pg | MEAN CORPUSCULAR HEMOGLOBIN CONCENTRATION [2]: 37.2 G/DL | MEAN CORPUSCULAR VOLUME [2]: 64.3 fL | MONOCYTE [2]: 1.67% | NEUTROPHIL [2]: 13.33% | NUCLEATED RED BLOOD CELLS [2]: 0 /100WBC | PLATELET COUNT [2]: 1276.67 x10E3/uL | ALANINE AMINOTRANSFERASE [2]: 46 u/L | ALBUMIN [2]: 3.93 G/DL | ALKALINE PHOSPHATASE [2]: 341 u/L | ASPARTATE AMINOTRANSFERASE [2]: 77.33 u/L | BLOOD UREA NITROGEN [2]: 15 mg/dL | CARBON DIOXIDE [2]: 26.67 mmol/L | CHLORIDE [2]: 102 MEQ/L | CHOLESTEROL [2]: 86.67 mg/dL | CREATINE PHOSPHOKINASE [2]: 247 u/L | CREATININE [2]: 0.19 mg/dL | GLUCOSE [2]: 138.67 mg/dL | LACTATE DEHYDROGENASE [2]: 298.33 u/L | LIPASE [2]: 9.33 u/L | PHOSPHORUS [2]: 11.5 mg/dL | POTASSIUM [2]: 6.51 MEQ/L | SODIUM [2]: 144.73 MEQ/L | TOTAL BILIRUBIN [2]: 0.23 mg/dL | TOTAL PROTEIN [2]: 5.73 G/DL | URIC ACID [2]: 1.4 mg/dL | ABSOLUTE BASOPHIL [3]: 0 CELLS/uL | ABSOLUTE EOSINOPHIL [3]: 0 CELLS/uL | ABSOLUTE LYMPHOCYTE [3]: 17006.67 CELLS/uL | ABSOLUTE MONOCYTE [3]: 546.67 CELLS/uL | ABSOLUTE SEGMENTED NEUTROPHIL [3]: 2113.33 CELLS/uL | BASOPHIL [3]: 0% | EOSINOPHIL [3]: 0% | ERYTHROCYTE COUNT [3]: 5.57 x10E6/uL | HEMATOCRIT [3]: 34.4% | HEMOGLOBIN [3]: 12.93 G/DL | LEUKOCYTE COUNT [3]: 19.67 x10E3/uL | LYMPHOCYTE [3]: 86% | MEAN CORPUSCULAR HEMOGLOBIN [3]: 23.2 pg | MEAN CORPUSCULAR HEMOGLOBIN CONCENTRATION [3]: 37.6 G/DL | MEAN CORPUSCULAR VOLUME [3]: 61.77 fL | MONOCYTE [3]: 2.67% | NEUTROPHIL [3]: 11.33% | NUCLEATED RED BLOOD CELLS [3]: 0 /100WBC | PLATELET COUNT [3]: 1503 x10E3/uL | ALANINE AMINOTRANSFERASE [3]: 51 u/L | ALBUMIN [3]: 3.47 G/DL | ALKALINE PHOSPHATASE [3]: 278 u/L | ASPARTATE AMINOTRANSFERASE [3]: 83.67 u/L | BLOOD UREA NITROGEN [3]: 19 mg/dL | CARBON DIOXIDE [3]: 27.33 mmol/L | CHLORIDE [3]: 105 MEQ/L | CHOLESTEROL [3]: 73.33 mg/dL | CREATINE PHOSPHOKINASE [3]: 310 u/L | CREATININE [3]: 0.35 mg/dL | GLUCOSE [3]: 162 mg/dL | LACTATE DEHYDROGENASE [3]: 102.67 u/L | LIPASE [3]: 9.67 u/L | PHOSPHORUS [3]: 11.3 mg/dL | POTASSIUM [3]: 6.63 MEQ/L | SODIUM [3]: 144.03 MEQ/L | TOTAL BILIRUBIN [3]: 0.13 mg/dL | TOTAL PROTEIN [3]: 5.8 G/DL | URIC ACID [3]: 1.63 mg/dL

— ChEMBL document CHEMBL3885881, “DrugMatrix”
